{"source": "paper PMC10485003", "about": "“Antibiotic hyper-resistance in a class I aminoacyl-tRNA synthetase with altered active site signature motif” (Nature Communications, 2023)", "target": "T1, wt-ALHH DrIleRS2 (Deinococcus radiodurans, UniProt Q9RUP8)", "T1 construct": "hexa-histidine tag (pET28b(+)) (N); made in house; host or cells: E. coli BL21(DE3)", "T1 sequence (Q9RUP8 whole entry)": "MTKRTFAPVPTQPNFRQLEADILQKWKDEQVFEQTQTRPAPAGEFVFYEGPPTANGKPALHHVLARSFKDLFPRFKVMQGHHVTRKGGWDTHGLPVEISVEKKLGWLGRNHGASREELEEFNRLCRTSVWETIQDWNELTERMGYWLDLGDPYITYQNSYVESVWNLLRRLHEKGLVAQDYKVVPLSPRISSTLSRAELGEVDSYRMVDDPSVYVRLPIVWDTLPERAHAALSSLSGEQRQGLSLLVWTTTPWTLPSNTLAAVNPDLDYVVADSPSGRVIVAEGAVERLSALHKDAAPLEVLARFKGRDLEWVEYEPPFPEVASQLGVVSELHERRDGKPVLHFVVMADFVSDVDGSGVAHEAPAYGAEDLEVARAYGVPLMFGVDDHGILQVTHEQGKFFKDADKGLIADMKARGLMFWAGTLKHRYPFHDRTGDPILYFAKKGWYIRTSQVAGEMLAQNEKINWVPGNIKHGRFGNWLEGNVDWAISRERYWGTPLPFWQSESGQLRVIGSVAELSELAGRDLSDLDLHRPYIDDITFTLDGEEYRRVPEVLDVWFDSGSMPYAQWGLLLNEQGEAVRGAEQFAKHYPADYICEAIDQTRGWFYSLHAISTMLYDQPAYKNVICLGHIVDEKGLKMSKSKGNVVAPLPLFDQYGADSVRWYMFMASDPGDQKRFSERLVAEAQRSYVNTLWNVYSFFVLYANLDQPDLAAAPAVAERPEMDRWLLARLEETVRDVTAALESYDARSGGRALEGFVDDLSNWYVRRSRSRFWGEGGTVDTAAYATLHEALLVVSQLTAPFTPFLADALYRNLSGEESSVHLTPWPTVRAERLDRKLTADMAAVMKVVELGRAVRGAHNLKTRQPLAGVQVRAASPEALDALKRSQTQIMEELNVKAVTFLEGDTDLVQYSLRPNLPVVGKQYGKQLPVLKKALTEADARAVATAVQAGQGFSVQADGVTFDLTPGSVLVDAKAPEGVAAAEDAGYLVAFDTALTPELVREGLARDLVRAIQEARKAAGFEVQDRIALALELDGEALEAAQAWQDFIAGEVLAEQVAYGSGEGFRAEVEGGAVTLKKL", "test": "ATP-PPi exchange assay, mupirocin inhibition of amino acid activation", "format": "biochemical", "conditions": "for Ki: average ± SD of three independent experiments", "procedure": "L-Ile and ATP concentrations ranged from 1/10 KM to 10 KM values. When measuring the KI towards one of the substrates, the other was held in saturation (concentrations at least 10 KM). The aliquots of the reaction mixture (1–2.5 μl) were quenched in 2 volumes of 500 mM NaOAc pH = 4.5, 0.1% SDS, and formed ^32P-ATP was separated from the remaining ^32P-PPi by thin-layer chromatography on Polygram CEL 300 PEI UV254 TLC plates (Macherey-Nagel, cat: 801063) using 750 mM KH2PO4 pH=3.5, 4 M urea buffer. Visualization and quantification of the signals was performed using a Typhoon Phosphoimager 5 (General Electric) and accompanying ImageQuant™ TL software (SV: 10.2). The kinetic constants were determined using a global fit option of the competitive inhibition model of GraphPad Prism 6 software (SV: 6.01). All experiments were performed in triplicates. The kcat was determined by dividing the maximal velocity, VM, with the used enzyme concentration. […]\nvariable substrate (ATP or Ile) was varied in the range of 0.1 KM to 10 KM. The other substrate (Ile or ATP) was kept in excess at 5 to 10 KM. Data were globally fitted to the competitive inhibition model using GraphPad prism 6.01 for Windows software. The values represent the average value ± SD of three independent experiments. Source data are provided as a Source Data file.", "note": "Several values for one entry are separate records, joined by “and”; a condition that tells them apart may be missing. Equal entries are not always repeated. Where two headings read alike, the source gives them in different places.", "data": [{"compound": "C/C(=C\\C(=O)OCCCCCCCCC(=O)O)C[C@@H]1OC[C@H](C[C@@H]2O[C@H]2[C@@H](C)[C@H](C)O)[C@@H](O)[C@H]1O", "note": "[mupirocin]", "values": [{"measurement": "Ki", "setting": "amino acid activation assay, ATP as variable substrate, read-out: KI (MUP)ATP", "result": "7.7 ± 0.4", "unit": "mM"}, {"measurement": "Ki", "setting": "amino acid activation step, ATP/PPi exchange assay, Ile varied, ATP saturating, read-out: KI (MUP)Ile", "result": "6.6 ± 0.4", "unit": "mM"}, {"measurement": "mode of inhibition", "setting": "amino acid activation step, with respect to both Ile and ATP", "result": "classical competitive inhibition"}, {"measurement": "initial velocity vo", "setting": "c(mupirocin) 2.0 mM, c(Ile) 10.0 μM", "result": "0.0067 mM/min and 0.00769 mM/min and 0.00782 mM/min"}, {"measurement": "initial velocity vo", "setting": "c(mupirocin) 2.0 mM, c(Ile) 20.0 μM", "result": "0.01324 mM/min and 0.01288 mM/min and 0.01298 mM/min"}, {"measurement": "initial velocity vo", "setting": "c(mupirocin) 2.0 mM, c(Ile) 40.0 μM", "result": "0.02028 mM/min and 0.02243 mM/min and 0.02046 mM/min"}, {"measurement": "initial velocity vo", "setting": "c(mupirocin) 5.0 mM, c(ATP) 1.0 mM", "result": "0.03528 mM/min and 0.03566 mM/min and 0.03641 mM/min"}, {"measurement": "initial velocity vo", "setting": "c(mupirocin) 5.0 mM, c(ATP) 2.5 mM", "result": "0.04751 mM/min and 0.04951 mM/min and 0.05105 mM/min"}, {"measurement": "initial velocity vo", "setting": "c(mupirocin) 5.0 mM, c(ATP) 5.0 mM", "result": "0.05659 mM/min and 0.05544 mM/min and 0.05848 mM/min"}, {"measurement": "initial velocity vo", "setting": "c(mupirocin) 5.0 mM, c(ATP) 10.0 mM", "result": "0.05987 mM/min and 0.05899 mM/min and 0.06477 mM/min"}, {"measurement": "initial velocity vo", "setting": "c(mupirocin) 5.0 mM, c(Ile) 10.0 μM", "result": "0.00848 mM/min and 0.00805 mM/min and 0.00714 mM/min"}, {"measurement": "initial velocity vo", "setting": "c(mupirocin) 5.0 mM, c(Ile) 20.0 μM", "result": "0.01178 mM/min and 0.01222 mM/min and 0.01149 mM/min"}, {"measurement": "initial velocity vo", "setting": "c(mupirocin) 5.0 mM, c(Ile) 40.0 μM", "result": "0.01921 mM/min and 0.02111 mM/min and 0.01863 mM/min"}, {"measurement": "initial velocity vo", "setting": "c(mupirocin) 10.0 mM, c(ATP) 1.0 mM", "result": "0.02957 mM/min and 0.02811 mM/min and 0.02952 mM/min"}, {"measurement": "initial velocity vo", "setting": "c(mupirocin) 10.0 mM, c(ATP) 2.5 mM", "result": "0.04461 mM/min and 0.04583 mM/min and 0.04572 mM/min"}, {"measurement": "initial velocity vo", "setting": "c(mupirocin) 10.0 mM, c(ATP) 5.0 mM", "result": "0.05427 mM/min and 0.05634 mM/min and 0.05619 mM/min"}, {"measurement": "initial velocity vo", "setting": "c(mupirocin) 10.0 mM, c(ATP) 10.0 mM", "result": "0.06096 mM/min and 0.06226 mM/min and 0.06179 mM/min"}, {"measurement": "initial velocity vo", "setting": "c(mupirocin) 10.0 mM, c(Ile) 10.0 μM", "result": "0.00446 mM/min and 0.00532 mM/min and 0.0043 mM/min"}, {"measurement": "initial velocity vo", "setting": "c(mupirocin) 10.0 mM, c(Ile) 20.0 μM", "result": "0.0078 mM/min and 0.01029 mM/min and 0.0074 mM/min"}, {"measurement": "initial velocity vo", "setting": "c(mupirocin) 10.0 mM, c(Ile) 40.0 μM", "result": "0.01449 mM/min and 0.016 mM/min and 0.01446 mM/min"}, {"measurement": "initial velocity vo", "setting": "c(mupirocin) 10.0 mM, c(Ile) 80.0 μM", "result": "0.02234 mM/min and 0.02409 mM/min and 0.02227 mM/min"}, {"measurement": "initial velocity vo", "setting": "c(mupirocin) 15.0 mM, c(ATP) 1.0 mM", "result": "0.02381 mM/min and 0.02402 mM/min and 0.0242 mM/min"}, {"measurement": "initial velocity vo", "setting": "c(mupirocin) 15.0 mM, c(ATP) 2.5 mM", "result": "0.03988 mM/min and 0.03998 mM/min and 0.04105 mM/min"}, {"measurement": "initial velocity vo", "setting": "c(mupirocin) 15.0 mM, c(ATP) 5.0 mM", "result": "0.05025 mM/min and 0.05034 mM/min and 0.05209 mM/min"}, {"measurement": "initial velocity vo", "setting": "c(mupirocin) 15.0 mM, c(ATP) 10.0 mM", "result": "0.0561 mM/min and 0.05663 mM/min and 0.05737 mM/min"}, {"measurement": "initial velocity vo", "setting": "c(mupirocin) 20.0 mM, c(ATP) 1.0 mM", "result": "0.02027 mM/min and 0.02047 mM/min and 0.01966 mM/min"}, {"measurement": "initial velocity vo", "setting": "c(mupirocin) 20.0 mM, c(ATP) 2.5 mM", "result": "0.03606 mM/min and 0.03686 mM/min and 0.03693 mM/min"}, {"measurement": "initial velocity vo", "setting": "c(mupirocin) 20.0 mM, c(ATP) 5.0 mM", "result": "0.04674 mM/min and 0.0476 mM/min and 0.04884 mM/min"}, {"measurement": "initial velocity vo", "setting": "c(mupirocin) 20.0 mM, c(ATP) 10.0 mM", "result": "0.05461 mM/min and 0.05589 mM/min and 0.05542 mM/min"}, {"measurement": "initial velocity vo", "setting": "c(mupirocin) 25 mM, c(ATP) 1.0 mM", "result": "0.01716 mM/min and 0.01763 mM/min and 0.01741 mM/min"}, {"measurement": "initial velocity vo", "setting": "c(mupirocin) 25 mM, c(ATP) 2.5 mM", "result": "0.03106 mM/min and 0.033 mM/min and 0.02877 mM/min"}, {"measurement": "initial velocity vo", "setting": "c(mupirocin) 25 mM, c(ATP) 5.0 mM", "result": "0.0424 mM/min and 0.04408 mM/min and 0.04201 mM/min"}, {"measurement": "initial velocity vo", "setting": "c(mupirocin) 25 mM, c(ATP) 10.0 mM", "result": "0.05204 mM/min and 0.0507 mM/min and 0.05392 mM/min"}, {"measurement": "initial velocity vo", "setting": "c(mupirocin) 25.0 mM, c(Ile) 10.0 μM", "result": "0.003 mM/min and 0.0032 mM/min and 0.00312 mM/min"}, {"measurement": "initial velocity vo", "setting": "c(mupirocin) 25.0 mM, c(Ile) 20.0 μM", "result": "0.0036 mM/min and 0.0044 mM/min and 0.00399 mM/min"}, {"measurement": "initial velocity vo", "setting": "c(mupirocin) 25.0 mM, c(Ile) 40.0 μM", "result": "0.0074 mM/min and 0.0071 mM/min and 0.00814 mM/min"}, {"measurement": "initial velocity vo", "setting": "c(mupirocin) 25.0 mM, c(Ile) 80.0 μM", "result": 0.0137, "unit": "mM/min"}]}]}
